# Laboratory results taken from ChEMBL document CHEMBL3627651, “Fine tuning of agonistic/antagonistic activity for vitamin D receptor by 22-alkyl chain length of ligands: 22S-Hexyl compound unexpectedly restored agonistic activity” (Bioorg Med Chem, 2015).
# Calls of active or inactive are those of the source. The rule behind the calls is not given here.
# What was measured:
# [1] = target: T1, Vitamin D3 receptor (Homo sapiens) (UniProt P11473); assay: Agonist activity at human VDR transfected in African green monkey COS7 cells assessed as induction of transcriptional activity at 10^-10 to 10^-5 M after 16 hrs by dual luciferase reporter gene assay; type: cell-based; details: COS-7
# T1 sequence (whole entry): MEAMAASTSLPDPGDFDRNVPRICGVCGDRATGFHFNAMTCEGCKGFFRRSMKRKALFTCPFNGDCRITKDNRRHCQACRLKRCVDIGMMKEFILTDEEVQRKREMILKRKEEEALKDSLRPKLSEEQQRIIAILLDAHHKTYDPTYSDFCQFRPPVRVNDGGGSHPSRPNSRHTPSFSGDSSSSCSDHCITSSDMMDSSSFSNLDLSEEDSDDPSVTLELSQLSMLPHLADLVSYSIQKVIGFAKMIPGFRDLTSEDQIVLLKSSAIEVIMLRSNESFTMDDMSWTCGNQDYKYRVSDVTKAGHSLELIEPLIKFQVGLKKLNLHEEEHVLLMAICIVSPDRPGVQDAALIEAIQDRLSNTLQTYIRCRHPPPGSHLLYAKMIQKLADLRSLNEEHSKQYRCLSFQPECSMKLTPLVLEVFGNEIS
# [2] = target: T2, Vitamin D3 receptor (Homo sapiens, UniProt P11473); assay: Displacement of [3H]-1alpha,25-dihydroxyvitamin D3 from recombinant human VDR LBD expressed in Escherichia coli BL21 (DE3) pLysS after 16 hrs
# T2 sequence (P11473 whole entry): T1 sequence (whole entry)
smiles,measurement,setting,value
C=C1[C@H](O)CC(=C/C=C2\CCC[C@]3(C)[C@@H]([C@H](C)[C@H](CCO)CCCCCC)CC[C@@H]23)C[C@H]1O,Activity,[1],Active
same,IC50,[2],0.21 nM
